# Columns and labels:
# [1] = test system: SLA-2*05:02; assay: Peptide-MHC class I complex stability, scintillation proximity assay (SPA); design: species or system pig; settings: biotinylated recombinant SLA heavy chain, 125I-β2m, excess unlabeled β2m, read every 40 min, number only if t1/2 ≥ 0.5 h, '-' = not stably binding
# Experimental: (§1) The stability of the selected 198 peptides in complex with relevant SLA class I molecules and β2m was determined using a scintillation proximity assay (SPA), as previously described (Harndahl et al., [2011]). Briefly, biotinylated recombinant MHC class I heavy chains were attached to a streptavidin-coated scintillation microplate together with iodinated (^125I) β2m and candidate peptide resulting in a scintillation signal, which was consecutively measured every 40 min by a scintillation plate counter. The duration of this signal is directly correlated to the stability of the peptide-MHC class I-β2m complex under dissociating conditions and in the presence of excess unlabeled β2m (Harndahl et al., [2011]). Peptides with a half-life ≥ 0.5 h were selected as stable binders.
# [2] = test system: SLA-2*04:01; assay: as above; design: species or system pig; settings: biotinylated recombinant SLA heavy chain, 125I-β2m, excess unlabeled β2m, read every 40 min, number only if t1/2 ≥ 0.5 h, '-' = not stably binding
# Experimental: as §1
# [3] = test system: SLA-3*04:01; assay: as above; design: species or system pig; settings: biotinylated recombinant SLA heavy chain, 125I-β2m, excess unlabeled β2m, read every 40 min, number only if t1/2 ≥ 0.5 h, '-' = not stably binding
# Experimental: as §1
# [4] = test system: PBMCs; assay: In vitro peptide stimulation of porcine PBMCs, IFN-γ release assay (ELISA); assay type: cell-based, pig; design: key to T cell response: “x” indicates that a response was found to this given peptide at least once; settings: PBMCs of immunized pigs, 2 × 10^5/well, 5 μg/ml peptide, 67.5–70.0 h, IFN-γ ELISA; response = 2-fold increase vs day -2 and at least 25 pg/ml IFN-γ, found at least once; SLA restriction not included
Sequence,Binder (t1/2 ≥ 0.5 h): half-life of peptide-SLA-3*04:01 complex [3],further results
"AIAKNLPELI [IDO3, porcine IDO-derived 9-11mer peptide]",–,Binder (t1/2 ≥ 0.5 h): half-life of peptide-SLA-2*05:02 complex [1]: 54 min
"ANRISAFGY [RhoC2, porcine RhoC-derived 9-11mer peptide]",- (t1/2 (hours) is listed for each of the stably binding peptides (t1/2 ≥ 0.5 h)),Binder (t1/2 ≥ 0.5 h): half-life of peptide-SLA-2*04:01 complex [2]: 156 min; T cell response [4]: x
"DIRKVLPRNI [IDO10, porcine IDO-derived 9-11mer peptide]",–,Binder (t1/2 ≥ 0.5 h): half-life of peptide-SLA-2*05:02 complex [1]: - (t1/2 (hours) is listed for each of the stably binding peptides (t1/2 ≥ 0.5 h))
"EELPHPYDAWI [IDO14, porcine IDO-derived 9-11mer peptide]",–,Binder (t1/2 ≥ 0.5 h): half-life of peptide-SLA-2*05:02 complex [1]: - (t1/2 (hours) is listed for each of the stably binding peptides (t1/2 ≥ 0.5 h))
"ELAKMKQEP [RhoC15, porcine RhoC-derived 9-11mer peptide]",–,Binder (t1/2 ≥ 0.5 h): half-life of peptide-SLA-2*05:02 complex [1]: - (t1/2 (hours) is listed for each of the stably binding peptides (t1/2 ≥ 0.5 h))
"ELPHPYDAWI [IDO18, porcine IDO-derived 9-11mer peptide]",–,Binder (t1/2 ≥ 0.5 h): half-life of peptide-SLA-2*05:02 complex [1]: 348 min
"ENIPEKWTP [RhoC17, porcine RhoC-derived 9-11mer peptide]",–,Binder (t1/2 ≥ 0.5 h): half-life of peptide-SLA-2*05:02 complex [1]: 66 min
"ENRGTGGTNVI [IDO19, porcine IDO-derived 9-11mer peptide]",–,Binder (t1/2 ≥ 0.5 h): half-life of peptide-SLA-2*05:02 complex [1]: - (t1/2 (hours) is listed for each of the stably binding peptides (t1/2 ≥ 0.5 h))
"FLVSLLVEI [IDO25, porcine IDO-derived 9-11mer peptide]",–,Binder (t1/2 ≥ 0.5 h): half-life of peptide-SLA-2*05:02 complex [1]: - (t1/2 (hours) is listed for each of the stably binding peptides (t1/2 ≥ 0.5 h))
"HKALEVFHQI [IDO36, porcine IDO-derived 9-11mer peptide]",–,Binder (t1/2 ≥ 0.5 h): half-life of peptide-SLA-2*05:02 complex [1]: - (t1/2 (hours) is listed for each of the stably binding peptides (t1/2 ≥ 0.5 h))
"HLQIVTKYI [IDO38, porcine IDO-derived 9-11mer peptide]",–,Binder (t1/2 ≥ 0.5 h): half-life of peptide-SLA-2*05:02 complex [1]: 30 min
"HLQIVTKYIVI [IDO39, porcine IDO-derived 9-11mer peptide]",–,Binder (t1/2 ≥ 0.5 h): half-life of peptide-SLA-2*05:02 complex [1]: 36 min
"KMQRLAHLVL [IDO57, porcine IDO-derived 9-11mer peptide]",- (t1/2 (hours) is listed for each of the stably binding peptides (t1/2 ≥ 0.5 h)),–
"KNKRRRGCPI [RhoC31, porcine RhoC-derived 9-11mer peptide]",42 min,T cell response [4]: x
"KNKRRRGCPIL [RhoC32, porcine RhoC-derived 9-11mer peptide]",- (t1/2 (hours) is listed for each of the stably binding peptides (t1/2 ≥ 0.5 h)),–
"KNMDILFSF [IDO58, porcine IDO-derived 9-11mer peptide]",- (t1/2 (hours) is listed for each of the stably binding peptides (t1/2 ≥ 0.5 h)),Binder (t1/2 ≥ 0.5 h): half-life of peptide-SLA-2*04:01 complex [2]: 480 min; T cell response [4]: x
"KNMDILFSFPG [IDO59, porcine IDO-derived 9-11mer peptide]",- (t1/2 (hours) is listed for each of the stably binding peptides (t1/2 ≥ 0.5 h)),–
"KRRRGCPIL [RhoC33, porcine RhoC-derived 9-11mer peptide]",- (t1/2 (hours) is listed for each of the stably binding peptides (t1/2 ≥ 0.5 h)),–
"KTKEGVREVF [RhoC34, porcine RhoC-derived 9-11mer peptide]",- (t1/2 (hours) is listed for each of the stably binding peptides (t1/2 ≥ 0.5 h)),–

Sequence,Binder (t1/2 ≥ 0.5 h): half-life of peptide-SLA-3*04:01 complex [3],further results
"KTVRGTTVRSL [IDO60, porcine IDO-derived 9-11mer peptide]",- (t1/2 (hours) is listed for each of the stably binding peptides (t1/2 ≥ 0.5 h)),–
"MQRLAHLVL [IDO78, porcine IDO-derived 9-11mer peptide]",- (t1/2 (hours) is listed for each of the stably binding peptides (t1/2 ≥ 0.5 h)),–
"MTYKNMDILFS [IDO82, porcine IDO-derived 9-11mer peptide]",- (t1/2 (hours) is listed for each of the stably binding peptides (t1/2 ≥ 0.5 h)),–
"NKRRRGCPI [RhoC41, porcine RhoC-derived 9-11mer peptide]",- (t1/2 (hours) is listed for each of the stably binding peptides (t1/2 ≥ 0.5 h)),–
"QEMRTYMPP [IDO101, porcine IDO-derived 9-11mer peptide]",- (t1/2 (hours) is listed for each of the stably binding peptides (t1/2 ≥ 0.5 h)),–
"QRLAHLVLGY [IDO102, porcine IDO-derived 9-11mer peptide]",- (t1/2 (hours) is listed for each of the stably binding peptides (t1/2 ≥ 0.5 h)),Binder (t1/2 ≥ 0.5 h): half-life of peptide-SLA-2*04:01 complex [2]: - (t1/2 (hours) is listed for each of the stably binding peptides (t1/2 ≥ 0.5 h))
"RKNKRRRGCPI [RhoC44, porcine RhoC-derived 9-11mer peptide]",- (t1/2 (hours) is listed for each of the stably binding peptides (t1/2 ≥ 0.5 h)),–
"RLRPLSYPD [RhoC45, porcine RhoC-derived 9-11mer peptide]",- (t1/2 (hours) is listed for each of the stably binding peptides (t1/2 ≥ 0.5 h)),–
"RNFLHSLES [IDO105, porcine IDO-derived 9-11mer peptide]",882 min,T cell response [4]: x
"RNFLHSLESG [IDO106, porcine IDO-derived 9-11mer peptide]",30 min,–
"RNFLHSLESGP [IDO107, porcine IDO-derived 9-11mer peptide]",42 min,T cell response [4]: x
"RNIAIPYCKL [IDO108, porcine IDO-derived 9-11mer peptide]",- (t1/2 (hours) is listed for each of the stably binding peptides (t1/2 ≥ 0.5 h)),–
"RNIAIPYCKLS [IDO109, porcine IDO-derived 9-11mer peptide]",- (t1/2 (hours) is listed for each of the stably binding peptides (t1/2 ≥ 0.5 h)),–
"RNYHLQIVT [IDO110, porcine IDO-derived 9-11mer peptide]",- (t1/2 (hours) is listed for each of the stably binding peptides (t1/2 ≥ 0.5 h)),Binder (t1/2 ≥ 0.5 h): half-life of peptide-SLA-2*04:01 complex [2]: - (t1/2 (hours) is listed for each of the stably binding peptides (t1/2 ≥ 0.5 h))
"RNYHLQIVTK [IDO111, porcine IDO-derived 9-11mer peptide]",- (t1/2 (hours) is listed for each of the stably binding peptides (t1/2 ≥ 0.5 h)),Binder (t1/2 ≥ 0.5 h): half-life of peptide-SLA-2*04:01 complex [2]: - (t1/2 (hours) is listed for each of the stably binding peptides (t1/2 ≥ 0.5 h))
"RNYHLQIVTKY [IDO112, porcine IDO-derived 9-11mer peptide]",30 min,Binder (t1/2 ≥ 0.5 h): half-life of peptide-SLA-2*04:01 complex [2]: 216 min
"YDRLRPLSY [RhoC56, porcine RhoC-derived 9-11mer peptide]",- (t1/2 (hours) is listed for each of the stably binding peptides (t1/2 ≥ 0.5 h)),–
"YDRLRPLSYPD [RhoC57, porcine RhoC-derived 9-11mer peptide]",- (t1/2 (hours) is listed for each of the stably binding peptides (t1/2 ≥ 0.5 h)),–

# Reference: article PMC4584933, “Establishing the pig as a large animal model for vaccine development against human cancer” (Frontiers in Genetics, 2015)
